Assay results as given in patent publication US20220347206A1 (NPO Petrovax Pharm, LLC, priority 2021, published 2022).
Where “and” joins values, the source holds several entries; their conditions need not be identical. Equal entries are not always repeated.

Legend:
natural killer cell = details: in vitro; cited from earlier work
immature DC = details: in vitro; cited from earlier work
COVID-19 [1] = details: human, in vivo
T-cell = details: in vitro; cited from earlier work
leukocytes = details: after penetrating leukocytes by endocytosis; cited from earlier work
COVID-19 [2] = details: human, in vivo; remark: listed apart in the source

Azoximer bromide [AZB]
Natural killer cell degranulation (natural killer cell): increase natural killer cell degranulation
Immature DC expansion (immature DC): increase immature DC expansion
Absolute number of ARI cases, control group versus main (AZB) group (COVID-19 [1]): more than 10 times higher
Afflicted by ARI, number (COVID-19 [1]): 32
Afflicted by ARI, percent (COVID-19 [1]): 13.1%
Afflicted by acute respiratory illness (ARI), percent (COVID-19 [1]): 0.3%
Cases of ARI (COVID-19 [1]): 3 cases
Cases of COVID-19 (COVID-19 [1]): 1 case
Confirmed diagnosis of COVID-19 (PCR or antibody test), number (COVID-19 [1]): 2
Confirmed diagnosis of COVID-19 (PCR or antibody test), percent (COVID-19 [1]): 0.3%
Confirmed diagnosis of COVID-19 (PCR test data), number (COVID-19 [1]): 6
Confirmed diagnosis of COVID-19 (PCR test data), percent (COVID-19 [1]): 2.4%
Number of ARI cases, control group versus main (AZB) group (COVID-19 [1]): more than 30 times
Participants who developed pneumonia, percent (reported ARI cases) (COVID-19 [1]): 0%
T-cell proliferation (T-cell): induce T-cell proliferation
Intracellular hydrogen peroxide (leukocytes): significant dose-dependent increases
Body temperature normalisation (≤37° C.) (COVID-19 [2]): all patients had a normal body temperature
Day 15 OS score 1 (not hospitalized, no limitations on activities), % (COVID-19 [2]): 1.3% and 1 (1.3) %
Day 15 OS score 2 (not hospitalized, limitation on activities), % (COVID-19 [2]): 35.1% and 27 (35.1) %
Day 15 OS score 3 (hospitalized, not requiring supplemental oxygen), % (COVID-19 [2]): 45.5% and 35 (45.5) %
Day 15 OS score 4 (hospitalized, requiring supplemental oxygen), % (COVID-19 [2]): 9 (11.7) %
Day 15 OS score 5 (hospitalized, on noninvasive ventilation or high flow oxygen devices), % (COVID-19 [2]): 3.9% and 3 (3.9) %
Day 15 OS score 6 (hospitalized, on invasive mechanical ventilation or extracorporeal membrane oxygenation), % (COVID-19 [2]): 2.6% and 2 (2.6) %
Day 15 OS score 7 (death), % (COVID-19 [2]): 0 (0.0) %
Day 15 Ordinal Scale score, mean (COVID-19 [2]): 2.90
Day 28 Mortality: alive, % (COVID-19 [2]): 77 (100.0) %
Day 28 Mortality: dead, % (COVID-19 [2]): 0 (0.0) %
Duration of hospitalization, mean (COVID-19 [2]): 19.32 days and 19.13^g days and 19.32^h days
Duration of hospitalization, median (COVID-19 [2]): 19.0 days and 19.0^c days
Improvement probability (NEWS) (COVID-19 [2]): > 80%
Mean (SD) NEWS (COVID-19 [2]): 1.08 (1.18)
Mean C-reactive protein (CRP) (COVID-19 [2]): 13.21 mg/L
Mean oxygen saturation (COVID-19 [2]): 96.90% and 96.98%
Mean time to an OS score improving to ≤2 (COVID-19 [2]): 15.9 days
Mean time to vanishing signs of pneumonia (COVID-19 [2]): 18.45 days
Median C-reactive protein (CRP) (COVID-19 [2]): 8.5 mg/L
Number of patients requiring respiratory support (OS=4-6) (COVID-19 [2]): 14 patients
Patients with an OS score of 2 or 3, percent (COVID-19 [2]): 93.5%
Pneumonia presence, number of patients (COVID-19 [2]): 18 patients
Pneumonia presence, percent of patients (COVID-19 [2]): 23.4%
Probability of achieving a normal body temperature (COVID-19 [2]): 90%
Respiratory support requirement (COVID-19 [2]): No patients required respiratory support
SpO2 value of the one patient below the reference range (COVID-19 [2]): 94%
